The values that follow come from article PMC12562640, “Investigating Amphoteric 3,4′-Biscoumarin-Based ortho-[(Dialkylamino)methyl]phenols as Dual MAO and ChE Inhibitors” (International Journal of Molecular Sciences, 2025).

In brackets after ≈: the same amount, converted by molar mass. Several values for one entry are separate records, joined by “and”; a condition that tells them apart may be missing. Equal values may be shown once. Entries after “also recorded” stand apart in the source; their conditions may differ. Read-outs that look alike come from different tables or passages of the source.

Series [1] can be described thus: Kinetic solubility in aqueous buffers (RP-HPLC). Format: physicochemical. The note with it: for solubility at 2 h: PBS buffer, 25 °C, pH 7.4, aqueous buffer, kinetic from dmso stock, read-out: Solubility Exp.; for experimental solubility in PBS pH 7.4, times higher than calculated with the ESOL model: PBS pH 7.4 vs ESOL. Here is the method: Water solubility and lipophilicity parameters were measured following previously reported methods. […] The mixture was then separated by centrifugation at 2500 rpm for 3 min. Immediately after filtration, 100 µL of the filtrate was mixed with an equal volume of a 1:1 (v/v) DMSO and PBS (50 mM, pH 7.4, KCl 0.15 M) or HCl (0.01 M, pH 2, KCl 0.15 M) solution to prevent precipitation from the saturated solution and subsequently analyzed by HPLC. The peak area was compared to a calibration curve of the tested compound in MeOH. The analytical parameters were set as follows. Mobile phase: MeOH/water pH 2.8 (acetic acid 0.5% v/v) at different percentages depending on the retention time of each test compound; stationary phase: Phenomenex, Kinetex 5 µ, C8, (150 × 3 mm); flux: […]; injection: 2 µL; λ 330 nm. The analyses were performed on the Agilent HPLC 1260 Infinity Series Integrated System (Agilent Technologies, Milan, Italy).

The target of series [2] is T1, electric eel eeAChE (Electrophorus electricus, UniProt O42275).
T1 construct: Acetylcholinesterase from electric eel and butyrylcholinesterase from equine serum (Sigma Aldrich) were employed; purchased Sigma Aldrich; host or cells: electric eel (natural source)
Briefly: biochemical. The note with it: for inhibition at 10 µM: at 10 µM concentration, mean ± SD; for IC50: mean ± SD of three independent determinations, ~10 means 50–60% inhibition at 10 µM.

The target in series [3] is T2, human MAO-A (Homo sapiens, UniProt P21397).
T2 construct: purchased Sigma Aldrich; host or cells: insect cells infected with baculovirus (microsomes)
T2 sequence (P21397 1-527): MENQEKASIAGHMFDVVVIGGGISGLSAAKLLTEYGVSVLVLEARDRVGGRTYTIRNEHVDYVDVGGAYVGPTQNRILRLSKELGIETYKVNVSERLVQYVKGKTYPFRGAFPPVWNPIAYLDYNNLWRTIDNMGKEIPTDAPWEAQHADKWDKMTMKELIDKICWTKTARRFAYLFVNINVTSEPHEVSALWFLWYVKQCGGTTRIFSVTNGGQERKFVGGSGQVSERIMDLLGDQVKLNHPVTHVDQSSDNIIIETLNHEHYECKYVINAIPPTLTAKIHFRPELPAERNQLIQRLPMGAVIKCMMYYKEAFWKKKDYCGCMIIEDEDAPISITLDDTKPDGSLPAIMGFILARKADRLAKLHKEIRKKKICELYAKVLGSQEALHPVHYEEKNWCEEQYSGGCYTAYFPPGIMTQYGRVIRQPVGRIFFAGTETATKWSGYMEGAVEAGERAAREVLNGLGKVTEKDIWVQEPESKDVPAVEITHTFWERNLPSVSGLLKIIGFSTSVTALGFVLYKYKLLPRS
Briefly: biochemical. Format: biochemical. As for the experimental part:
(§1) The inhibition assays of human monoamine oxidases were conducted using a fluorescence-based method with kynuramine as a non-selective substrate for each isoform, MAO-A/B [44, 45, 46]. Recombinant human MAO-A and MAO-B (microsomes from insect cells infected with baculovirus; Sigma Aldrich, St. Louis, MO, USA) (Merk Life Science S.r.l., Milan, Italy) were used. The measurements were performed in triplicate in black round-bottom polystyrene 96-well plates (Greiner Bio-One, Kremsmünster, Austria). […] In the MAO inhibition assays, all compounds were initially screened at a concentration of 10 µM. Each of them was preincubated at 37 °C for 20 min with 50 µM kynuramine in a phosphate buffer (PBS, 0.1 M, pH 8.0), adjusted to 0.39 osmolarity with KCl. After adding recombinant human MAO-A/B (250 U/mg and 59 U/mg, respectively) and incubating for another 30 min, NaOH was added. The fluorescence was measured at excitation/emission wavelengths of 310/400 nm. […] The IC50 is reported as the mean ± SD of three independent experiments, each performed in duplicate.

In series [4] the target is T3, human huMAO-B (Homo sapiens, UniProt P27338).
T3 construct: purchased Sigma Aldrich; host or cells: insect cells infected with baculovirus (microsomes)
T3 sequence (P27338 1-520): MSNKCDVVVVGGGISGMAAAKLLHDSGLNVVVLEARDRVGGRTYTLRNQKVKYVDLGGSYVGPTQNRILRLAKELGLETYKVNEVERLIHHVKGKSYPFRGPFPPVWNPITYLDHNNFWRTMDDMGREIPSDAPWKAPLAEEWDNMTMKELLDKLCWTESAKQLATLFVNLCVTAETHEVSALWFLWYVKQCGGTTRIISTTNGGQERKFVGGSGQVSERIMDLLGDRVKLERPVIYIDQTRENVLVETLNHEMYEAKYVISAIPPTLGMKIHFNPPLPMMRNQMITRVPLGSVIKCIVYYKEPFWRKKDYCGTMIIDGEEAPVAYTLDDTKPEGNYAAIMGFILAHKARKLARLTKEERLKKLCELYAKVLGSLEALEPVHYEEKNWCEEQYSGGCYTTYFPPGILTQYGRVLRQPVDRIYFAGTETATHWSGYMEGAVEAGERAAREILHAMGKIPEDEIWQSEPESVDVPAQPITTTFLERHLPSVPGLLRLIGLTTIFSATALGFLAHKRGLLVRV
Briefly: biochemical. In kind it is biochemical. Particulars: for inhibition at 10 µM: at 10 µM concentration, mean ± SD. As for the experimental part: as §1

The target of series [5] is T4, horse serum eqBChE (Equus caballus, UniProt P81908).
T4 construct: Acetylcholinesterase from electric eel and butyrylcholinesterase from equine serum (Sigma Aldrich) were employed; purchased Sigma Aldrich; host or cells: equine serum
Briefly: biochemical. In kind it is biochemical. Particulars: at 10 µM concentration. Here is the method: (§2) Cholinesterase inhibition assays were carried out using the Ellman spectrophotometric method, modified for a 96-well plate format. Acetylcholinesterase from electric eel and butyrylcholinesterase from equine serum (Sigma Aldrich) were employed. The measurements were performed in triplicate using clear, flat-bottom polystyrene plates (Greiner Bio-One).

Series [6] can be described thus: Lipophilicity by RP-HPLC (log k'w). In kind it is physicochemical. The note with it: C18, extrapolated to 100% water mobile phase. Here is the method:
The lipophilicity of the five compounds in Table 4 was assessed by calculation and experimental approaches. As a calculated lipophilicity parameter (log Pcalc), we took from the SwissADME free website (http://www.swissadme.ch) the ‘Consensus Log Po/w’, that is, the arithmetic mean of octanol/water log Ps calculated by five methods (iLOGP, XLOGP3, WLOGP, MLOGP, and SILICOS-IT).
The lipophilicity parameters were determined by an RP-HPLC technique. In short, methanolic solutions of the examined compounds (1 mg·mL^−1) were analyzed by the Agilent 1260 infinite HPLC system (Agilent Technologies, Milan, Italy) equipped with a diode array detector (DAD), using a Phenomenex C18-column (Kinetex 5 μ, 100 Å, 150 × 3 mm) as the stationary phase and MeOH/water buffer mobile phases with different v/v composition (i.e., mobile phases containing 0.05 increments of MeOH volume fractions in 10 mM ammonium formate buffer at pH 4.5; φMeOH ranging between 0.70 and 0.20). The chromatographic measurements were carried out at 25 ± 1 °C, flow rate of 0.5 mL·min^−1, and detection at λ 330 nm. The log of capacity factors of each compound at different mobile phase compositions was calculated (log k′ = log (tR − t0)/t0, where tR represents the retention time of the solute and t0 is the column dead time). For each compound, the equation of the linear relationship between log k′ and φMeOH (R^2 > 0.991) on at least five datapoints, each from duplicate, was derived by regression analysis and the intercept at the y-axis (i.e., φMeOH = 0) calculated as the lipophilicity parameter log k′w.

For series [7], the target named is human huAChE (Homo sapiens, UniProt P22303). Briefly: biochemical. Format: biochemical. Particulars: for inhibition at 10 µM: at 10 µM concentration, read-out: huAChE inhibition class. Here is the method: The inhibition of human huAChE was also evaluated for five compounds.
as §2

In series [8] the target is T2, human MAO-A. Briefly: Inhibition kinetics and time course of MAO-A inhibition. In kind it is biochemical. From the text: For the sake of clarity, the position of the Mannich base (-CH2NR2) on the main coumarin core will be indicated as C8, whereas the positions of Cl or Br and OMe on the 4-coumarin-3-yl moiety will be indicated as C6′ and C8′.
Time courses of MAO-A inhibition by 2b and 5b, using a spectrophotometric assay measuring the absorbance of 4-
(1 picture or pasted object on this page, not shown here)

Series [9] is described as follows: Hydrolytic stability in aqueous buffers. Particulars: 0.01 M HCl (pH 2.0) and 0.05 M PBS (pH 7.4), 37 ± 1 °C, 1 h, 100 μM.
Protocol: Sample solutions at 100 μM (DMSO as the cosolvent, 1% v/v) were incubated at 37 ± 1 °C for 1 h, following shaking of the solution on an orbital shaker at 250 rpm and monitoring by RP-HPLC.
Setting [10] is: PBS (50 mM, pH 7.4, 0.15 M KCl) at 25 ± 1 °C, n = 3.
The mark [11] stands for this setting: read-out: eqBChE inhibition class.
Where [12] appears, read: mean ± SD of three independent determinations, ~10 means 50–60% inhibition at 10 µM.

human huAChE, sequence (P22303 32-614): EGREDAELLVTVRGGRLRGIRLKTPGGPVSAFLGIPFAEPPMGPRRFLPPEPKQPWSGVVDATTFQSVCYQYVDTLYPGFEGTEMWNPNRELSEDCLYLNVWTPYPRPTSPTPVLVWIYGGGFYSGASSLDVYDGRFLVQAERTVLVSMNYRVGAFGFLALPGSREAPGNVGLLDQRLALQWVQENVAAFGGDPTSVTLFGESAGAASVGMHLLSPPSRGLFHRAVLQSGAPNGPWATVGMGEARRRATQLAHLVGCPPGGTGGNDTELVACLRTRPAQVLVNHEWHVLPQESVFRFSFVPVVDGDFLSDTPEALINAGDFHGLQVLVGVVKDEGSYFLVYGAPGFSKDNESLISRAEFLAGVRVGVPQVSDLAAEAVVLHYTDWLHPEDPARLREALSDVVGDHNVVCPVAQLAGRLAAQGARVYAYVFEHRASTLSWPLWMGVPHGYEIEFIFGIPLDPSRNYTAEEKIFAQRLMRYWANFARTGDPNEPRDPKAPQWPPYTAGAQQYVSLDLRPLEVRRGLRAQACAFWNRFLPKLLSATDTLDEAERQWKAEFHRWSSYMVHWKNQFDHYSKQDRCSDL
T4 sequence (P81908 whole entry): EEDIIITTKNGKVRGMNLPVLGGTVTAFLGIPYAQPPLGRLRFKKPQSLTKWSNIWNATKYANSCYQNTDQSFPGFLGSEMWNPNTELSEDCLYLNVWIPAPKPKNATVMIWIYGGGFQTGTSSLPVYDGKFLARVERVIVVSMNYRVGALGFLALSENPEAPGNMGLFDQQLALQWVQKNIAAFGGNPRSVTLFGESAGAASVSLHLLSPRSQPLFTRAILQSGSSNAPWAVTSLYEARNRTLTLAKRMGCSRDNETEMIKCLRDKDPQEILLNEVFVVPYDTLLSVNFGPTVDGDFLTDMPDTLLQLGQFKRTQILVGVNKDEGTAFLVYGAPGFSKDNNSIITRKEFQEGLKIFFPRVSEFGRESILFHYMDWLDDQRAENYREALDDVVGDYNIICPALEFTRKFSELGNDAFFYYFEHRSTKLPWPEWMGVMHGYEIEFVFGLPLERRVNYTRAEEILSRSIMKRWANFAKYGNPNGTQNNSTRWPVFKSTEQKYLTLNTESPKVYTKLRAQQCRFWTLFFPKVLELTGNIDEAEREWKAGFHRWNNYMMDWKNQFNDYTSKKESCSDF
T1 sequence (O42275 24-633): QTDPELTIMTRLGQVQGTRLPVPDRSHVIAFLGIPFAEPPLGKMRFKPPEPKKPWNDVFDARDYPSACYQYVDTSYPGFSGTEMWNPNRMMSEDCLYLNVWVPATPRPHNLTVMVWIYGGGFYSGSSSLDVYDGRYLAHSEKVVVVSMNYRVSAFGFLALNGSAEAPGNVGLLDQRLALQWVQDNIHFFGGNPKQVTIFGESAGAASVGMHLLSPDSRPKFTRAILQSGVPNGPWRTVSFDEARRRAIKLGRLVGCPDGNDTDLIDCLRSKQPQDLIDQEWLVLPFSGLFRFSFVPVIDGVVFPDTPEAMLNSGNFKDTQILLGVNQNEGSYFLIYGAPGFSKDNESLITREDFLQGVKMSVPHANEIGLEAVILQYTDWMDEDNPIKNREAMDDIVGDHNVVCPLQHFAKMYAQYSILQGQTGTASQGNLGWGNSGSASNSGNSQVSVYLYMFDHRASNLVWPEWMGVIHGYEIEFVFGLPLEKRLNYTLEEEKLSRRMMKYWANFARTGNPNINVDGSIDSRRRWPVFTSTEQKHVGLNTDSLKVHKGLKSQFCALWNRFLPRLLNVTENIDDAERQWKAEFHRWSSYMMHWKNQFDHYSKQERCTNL

Turning to `CN(C)Cc1c(O)ccc2c(-c3cc4ccccc4oc3=O)cc(=O)oc12` [Compound 2a, 8-((dimethylamino)methyl)-4-(2-oxo-2H-chromen-3-yl)-7-hydroxy-2H-chromen-2-one], the solubility at 2 h in series [1] (setting [10]) worked out at 183 µM (≈ 66.5 µg/mL). Besides, the “experimental solubility in PBS pH 7.4, times higher than calculated with the ESOL model” value in series [1] was “two”. Also, the inhibition at 10 µM is 22% in [2], 36% in [4] and below 10% in series [5] (setting [11]). In series [3], half-maximal inhibition (IC50) was put at 8.3 ± 0.36 µM. In series [6], the “Log k’w (polycratic capacity factor)” value is reported as 2.11.
With `CN(C)Cc1c(O)ccc2c(-c3cc4cc(Cl)ccc4oc3=O)cc(=O)oc12` [Compound 2b, 8-((dimethylamino)methyl)-4-(6-chloro-2-oxo-2H-chromen-3-yl)-7-hydroxy-2H-chromen-2-one], the solubility at 2 h in [1] (setting [10]) worked out at 147 µM (≈ 58.5 µg/mL). Moreover, the half-maximal inhibitory concentration (IC50) in [2] is around 10 µM; in series [3] it was 1.49 ± 0.49 µM; in [4], around 10 µM. Moreover, the inhibition at 10 µM in [7] and in [5] (setting [11]) was below 10% each time. In [6], the “Log k’w (polycratic capacity factor)” value was 2.45. Moreover, the “mode of inhibition of MAO-A” value in series [8] (Michaelis–Menten and Lineweaver–Burk plots) is “competitive”. The Ki in series [8] (human MAO-A, competitive inhibition, read-out: inhibition constant (Ki) MAO-A) turned out to be 0.272 µM. The “reversibility of MAO-A inhibition” value in series [8] (time course, absorbance of 4-hydroxyquinoline at 316 nm, inhibitor close to IC50) is listed as “reversible”.
Regarding `CN(C)Cc1c(O)ccc2c(-c3cc4cc(Br)ccc4oc3=O)cc(=O)oc12` [Compound 2c, 8-((dimethylamino)methyl)-4-(6-bromo-2-oxo-2H-chromen-3-yl)-7-hydroxy-2H-chromen-2-one], the solubility at 2 h in [1] (setting [10]) came out at 141 µM (≈ 62.4 µg/mL). Moreover, the “experimental solubility in PBS pH 7.4, times higher than calculated with the ESOL model” value in [1] is “thirteen”. Moreover, the inhibition at 10 µM was 20% in [2], below 10% in series [7] and below 10% in series [5] (setting [11]). Moreover, the IC50 in series [3] was 2.23 ± 0.22 µM; in series [4], around 10 µM. Besides, in series [3] (setting [12]), the “huMAO-A IC50” value is reported as “single-digit micromolar”. In addition, the hydrolytic stability entry in [9] is “stable over 1 h”. Besides, in [6], the “Log k’w (polycratic capacity factor)” value is 2.65.
As for `CCN(CC)Cc1c(O)ccc2c(-c3cc4cc(Br)ccc4oc3=O)cc(=O)oc12` [Compound 3c, 8-((diethylamino)methyl)-4-(6-bromo-2-oxo-2H-chromen-3-yl)-7-hydroxy-2H-chromen-2-one], the “Solubility Exp.” value in series [1] (setting [10]) is 181 µM (≈ 85.1 µg/mL). Moreover, the “experimental solubility in PBS pH 7.4, times higher than calculated with the ESOL model” value in [1] is “fifty; also recorded: fiftyfold”. For the same molecule, in series [1] (at pH 7.4), the “water solubility relative to 2c” value is given as 1.3 fold. Besides, the half-inhibitory concentration (IC50) is < 10 µM and 1.56 µM in series [2]; 3.04 ± 1.37 µM in series [3]; 4.27 ± 0.58 µM in [7]. Further, the “huMAO-A IC50” value in series [3] (setting [12]) is listed as “single-digit micromolar”. Moreover, the inhibition at 10 µM in series [4] was found to be 42%; in series [5] (mean ± SD, read-out: eqBChE % inhibition), 37%. The “Log k’w (polycratic capacity factor)” value in series [6] is listed as 2.89.
Turning to `CCCCN(C)Cc1c(O)ccc2c(-c3cc4cc(Br)ccc4oc3=O)cc(=O)oc12` [Compound 5c], the IC50 is 2.52 ± 0.7 µM in [3] (setting [12]) and around 10 µM in series [4] (setting [12]). In addition, in [3] (setting [12]), the “huMAO-A IC50” value is “single-digit micromolar”. Further, the hydrolytic stability entry in series [9] is given as “stable over 1 h”. Moreover, in series [5] (mean ± SD), the eqBChE % inhibition result is “[25 ± 11] %”.
